From publication PMC6478789, “A chemical toolbox for the study of bromodomains and epigenetic signaling” (Nature Communications, 2019)
Where two headings read alike, the source gives them in different places.

Legend:
MYST3 = MYST3 (Homo sapiens, UniProt Q92794); test: Histone acetyltransferase (HAT) activity assay; format: biochemical; conditions: read-out: HATs Activity (%);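 note: selectivity screen of bromodomain probe compounds across a panel of histone acetyltransferases, read out as enzyme activity in %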
HAT1 = biological target: T1, HAT1 (Homo sapiens, UniProt O14929); test: Histone acetyltransferase (HAT) activity assay; format: biochemical; conditions: read-out: HATs Activity (%);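 note: HAT selectivity screen of BRD probe compounds, enzyme activity in % measured with compound at 1 µM and 10 µM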
T1 sequence (O14929 1-419): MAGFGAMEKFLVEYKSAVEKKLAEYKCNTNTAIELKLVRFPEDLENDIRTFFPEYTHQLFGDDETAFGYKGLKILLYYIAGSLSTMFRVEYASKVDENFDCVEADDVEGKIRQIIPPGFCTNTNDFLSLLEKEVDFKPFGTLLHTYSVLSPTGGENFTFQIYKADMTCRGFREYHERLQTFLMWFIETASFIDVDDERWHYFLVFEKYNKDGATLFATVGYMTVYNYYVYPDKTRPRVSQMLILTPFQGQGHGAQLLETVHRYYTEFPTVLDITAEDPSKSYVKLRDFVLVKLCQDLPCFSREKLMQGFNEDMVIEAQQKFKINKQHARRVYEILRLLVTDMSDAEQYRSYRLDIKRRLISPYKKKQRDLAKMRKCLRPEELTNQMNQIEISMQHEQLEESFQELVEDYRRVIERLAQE

BRD4(2) = BRD4(2) (Homo sapiens, UniProt O60885); test: BROMOscan ligand-binding assay
Excerpt: (§1) BROMOscan is a binding assay based on the well-known KINOMEscan technology. This assay measures the binding of a DNA-tagged bromodomain to an immobilized BRD ligand. If an inhibitor is present, it will compete with the bromodomain binding to the immobilized ligand, resulting in reduction of a quantitative PCR (qPCR) signal in a dose-dependent manner.

BRDT(2) = BRDT(2) (Homo sapiens, UniProt Q58F21); test: BROMOscan ligand-binding assay
Excerpt: as §1

GCN5L2 = GCN5L2 (Homo sapiens, UniProt Q92830); test: Histone acetyltransferase (HAT) activity assay; format: biochemical; conditions: read-out: HATs Activity (%);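 note: selectivity screen of BRD probe compounds across a panel of histone acetyltransferases, HAT activity in % with compound at 1 or 10 µM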
TRIM24 = biological target: T2, TRIM24 (Homo sapiens, UniProt O15164); test: BROMOscan ligand-binding assay
T2 sequence (O15164 899-1004 limits assumed): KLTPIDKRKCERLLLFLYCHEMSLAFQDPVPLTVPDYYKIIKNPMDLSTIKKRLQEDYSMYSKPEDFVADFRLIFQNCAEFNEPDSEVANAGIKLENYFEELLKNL
Excerpt: as §1

EP300 = EP300 (Homo sapiens, UniProt Q09472); test: Histone acetyltransferase (HAT) activity assay; format: biochemical; conditions: read-out: HATs Activity (%);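 note: selectivity screen of bromodomain probe compounds against histone acetyltransferases, with enzyme activity given in percent for compounds tested at 1 and 10 µM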
BRD9 = biological target: T3, BRD9 (Homo sapiens, UniProt Q9H8M2); test: BROMOscan ligand-binding assay
T3 sequence (Q9H8M2 136-240 limits assumed): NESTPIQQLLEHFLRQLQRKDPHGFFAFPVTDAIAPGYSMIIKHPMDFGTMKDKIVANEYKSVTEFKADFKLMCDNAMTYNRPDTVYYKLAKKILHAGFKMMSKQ
Excerpt: as §1

MYST1 = biological target: T4, MYST1 (Homo sapiens, UniProt Q9H7Z6); test: Histone acetyltransferase (HAT) activity assay; format: biochemical; conditions: read-out: HATs Activity (%);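 note: selectivity screen across a panel of histone acetyltransferases, with compounds tested at 1 and 10 µM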
T4 sequence (Q9H7Z6 1-458): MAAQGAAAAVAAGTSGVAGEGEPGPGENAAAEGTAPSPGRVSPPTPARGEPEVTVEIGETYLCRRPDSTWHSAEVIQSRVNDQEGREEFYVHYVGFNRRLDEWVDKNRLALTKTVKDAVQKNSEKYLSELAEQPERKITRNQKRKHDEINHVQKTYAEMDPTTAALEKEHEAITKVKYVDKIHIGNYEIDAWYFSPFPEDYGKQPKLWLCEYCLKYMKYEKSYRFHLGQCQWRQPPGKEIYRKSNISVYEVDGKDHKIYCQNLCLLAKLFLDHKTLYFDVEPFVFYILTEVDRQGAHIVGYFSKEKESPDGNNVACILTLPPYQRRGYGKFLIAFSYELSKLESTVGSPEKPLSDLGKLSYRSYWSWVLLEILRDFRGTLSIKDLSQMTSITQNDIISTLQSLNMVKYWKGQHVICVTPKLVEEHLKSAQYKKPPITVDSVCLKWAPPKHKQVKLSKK

BRPF1 = biological target: T5, BRPF1 (Homo sapiens, UniProt P55201); test: BROMOscan ligand-binding assay
T5 sequence (P55201 628-732 limits assumed): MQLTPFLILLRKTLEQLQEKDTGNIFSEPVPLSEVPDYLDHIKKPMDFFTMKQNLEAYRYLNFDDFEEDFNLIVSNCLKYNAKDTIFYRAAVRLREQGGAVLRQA
Excerpt: as §1

TAF1(2) = biological target: T6, TAF1(2) (Homo sapiens, UniProt P21675); test: BROMOscan ligand-binding assay
T6 sequence (P21675 1519-1628 limits assumed): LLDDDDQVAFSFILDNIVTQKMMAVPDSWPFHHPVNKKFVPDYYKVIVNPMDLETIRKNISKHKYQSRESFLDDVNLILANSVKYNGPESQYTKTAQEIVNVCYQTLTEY
Excerpt: as §1

CECR2 = CECR2 (Homo sapiens, UniProt Q9BXF3); test: BROMOscan ligand-binding assay
Excerpt: as §1

PBRM1(2) = PBRM1(2) (Homo sapiens, UniProt Q86U86); test: BROMOscan ligand-binding assay
Excerpt: as §1

ATAD2B = biological target: T7, ATAD2B (Homo sapiens, UniProt Q9ULI0); test: BROMOscan ligand-binding assay
T7 sequence (Q9ULI0 951-1066 limits assumed): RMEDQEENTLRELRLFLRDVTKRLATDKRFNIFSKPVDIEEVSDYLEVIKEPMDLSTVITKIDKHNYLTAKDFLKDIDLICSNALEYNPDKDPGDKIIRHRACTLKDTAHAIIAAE
Excerpt: as §1

CREBBP = CREBBP (Homo sapiens, UniProt Q92793); test: BROMOscan ligand-binding assay
Excerpt: as §1

BRPF3 = biological target: T8, BRPF3 (Homo sapiens, UniProt Q9ULD4); test: BROMOscan ligand-binding assay
T8 sequence (Q9ULD4 589-693 limits assumed): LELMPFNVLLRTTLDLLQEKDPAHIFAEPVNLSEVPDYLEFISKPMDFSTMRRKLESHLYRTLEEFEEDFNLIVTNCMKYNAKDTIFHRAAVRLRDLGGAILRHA
Excerpt: as §1

BRD4(fl) = BRD4(fl) (Homo sapiens, UniProt O60885); test: BROMOscan ligand-binding assay
Excerpt: as §1

[1] = KD (BROMOscan), sheet prints no unit (nM)

EP300, sequence (Q09472 whole entry, species assumed): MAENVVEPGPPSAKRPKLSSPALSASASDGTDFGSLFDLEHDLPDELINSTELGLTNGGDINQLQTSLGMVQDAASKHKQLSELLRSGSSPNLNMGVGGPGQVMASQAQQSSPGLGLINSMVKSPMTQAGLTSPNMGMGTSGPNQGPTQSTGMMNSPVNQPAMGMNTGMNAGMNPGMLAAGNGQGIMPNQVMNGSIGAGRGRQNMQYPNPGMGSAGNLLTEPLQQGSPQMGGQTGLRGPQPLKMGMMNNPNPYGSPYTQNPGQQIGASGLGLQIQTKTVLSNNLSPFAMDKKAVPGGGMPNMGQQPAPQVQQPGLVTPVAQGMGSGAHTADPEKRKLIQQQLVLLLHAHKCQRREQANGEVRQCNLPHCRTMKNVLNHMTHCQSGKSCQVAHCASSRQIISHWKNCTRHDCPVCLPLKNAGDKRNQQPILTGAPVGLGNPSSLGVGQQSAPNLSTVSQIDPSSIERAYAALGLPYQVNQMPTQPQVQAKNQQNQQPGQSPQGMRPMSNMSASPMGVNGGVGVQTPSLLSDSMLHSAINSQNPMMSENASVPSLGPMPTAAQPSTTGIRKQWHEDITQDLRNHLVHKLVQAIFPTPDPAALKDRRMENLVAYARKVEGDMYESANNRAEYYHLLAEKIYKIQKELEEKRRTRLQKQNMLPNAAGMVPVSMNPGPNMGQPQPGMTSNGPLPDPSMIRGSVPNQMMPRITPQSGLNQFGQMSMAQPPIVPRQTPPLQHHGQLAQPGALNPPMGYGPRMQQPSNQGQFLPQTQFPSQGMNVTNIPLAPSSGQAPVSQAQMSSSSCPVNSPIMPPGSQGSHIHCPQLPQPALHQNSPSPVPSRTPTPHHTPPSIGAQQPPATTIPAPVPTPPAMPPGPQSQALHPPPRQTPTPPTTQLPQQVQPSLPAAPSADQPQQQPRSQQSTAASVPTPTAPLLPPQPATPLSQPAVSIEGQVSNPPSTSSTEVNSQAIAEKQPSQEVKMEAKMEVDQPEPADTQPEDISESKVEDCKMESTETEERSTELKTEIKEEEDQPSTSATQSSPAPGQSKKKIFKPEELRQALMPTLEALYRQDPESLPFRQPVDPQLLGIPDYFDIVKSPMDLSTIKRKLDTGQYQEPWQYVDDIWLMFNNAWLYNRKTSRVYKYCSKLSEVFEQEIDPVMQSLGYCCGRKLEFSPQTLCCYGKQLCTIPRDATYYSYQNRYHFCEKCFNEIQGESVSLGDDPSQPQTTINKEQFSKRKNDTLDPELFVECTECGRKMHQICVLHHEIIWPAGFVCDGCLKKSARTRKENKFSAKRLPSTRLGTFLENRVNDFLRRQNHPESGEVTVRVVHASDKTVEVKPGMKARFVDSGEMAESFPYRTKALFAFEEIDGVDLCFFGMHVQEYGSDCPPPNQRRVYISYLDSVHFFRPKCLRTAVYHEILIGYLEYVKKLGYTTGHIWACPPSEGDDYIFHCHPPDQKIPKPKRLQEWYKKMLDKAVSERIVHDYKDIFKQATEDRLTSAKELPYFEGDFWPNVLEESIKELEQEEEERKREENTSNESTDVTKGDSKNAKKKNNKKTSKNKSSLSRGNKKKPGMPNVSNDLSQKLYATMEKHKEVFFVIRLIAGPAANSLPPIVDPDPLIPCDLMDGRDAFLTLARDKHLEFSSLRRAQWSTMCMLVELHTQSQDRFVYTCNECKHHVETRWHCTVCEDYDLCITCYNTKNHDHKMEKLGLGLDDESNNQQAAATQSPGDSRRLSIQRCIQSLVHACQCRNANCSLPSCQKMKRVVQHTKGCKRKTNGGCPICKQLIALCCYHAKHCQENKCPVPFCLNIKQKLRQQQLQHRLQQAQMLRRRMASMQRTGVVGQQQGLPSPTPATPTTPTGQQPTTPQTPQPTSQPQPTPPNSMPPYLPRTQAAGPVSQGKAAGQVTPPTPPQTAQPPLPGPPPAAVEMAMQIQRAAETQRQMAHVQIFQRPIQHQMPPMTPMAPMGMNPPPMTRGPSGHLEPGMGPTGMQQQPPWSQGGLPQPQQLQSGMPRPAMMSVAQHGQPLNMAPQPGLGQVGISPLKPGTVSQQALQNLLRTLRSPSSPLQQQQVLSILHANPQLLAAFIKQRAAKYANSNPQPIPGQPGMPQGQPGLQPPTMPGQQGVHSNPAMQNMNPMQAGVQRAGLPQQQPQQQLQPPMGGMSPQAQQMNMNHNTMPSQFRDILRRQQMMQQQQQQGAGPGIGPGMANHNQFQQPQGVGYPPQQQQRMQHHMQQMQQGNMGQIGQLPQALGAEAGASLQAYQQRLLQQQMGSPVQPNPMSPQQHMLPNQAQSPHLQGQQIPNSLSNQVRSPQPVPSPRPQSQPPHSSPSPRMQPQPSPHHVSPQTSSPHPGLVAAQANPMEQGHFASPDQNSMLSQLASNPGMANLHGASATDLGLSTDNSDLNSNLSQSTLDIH
MYST3, sequence (Q92794 whole entry, species assumed): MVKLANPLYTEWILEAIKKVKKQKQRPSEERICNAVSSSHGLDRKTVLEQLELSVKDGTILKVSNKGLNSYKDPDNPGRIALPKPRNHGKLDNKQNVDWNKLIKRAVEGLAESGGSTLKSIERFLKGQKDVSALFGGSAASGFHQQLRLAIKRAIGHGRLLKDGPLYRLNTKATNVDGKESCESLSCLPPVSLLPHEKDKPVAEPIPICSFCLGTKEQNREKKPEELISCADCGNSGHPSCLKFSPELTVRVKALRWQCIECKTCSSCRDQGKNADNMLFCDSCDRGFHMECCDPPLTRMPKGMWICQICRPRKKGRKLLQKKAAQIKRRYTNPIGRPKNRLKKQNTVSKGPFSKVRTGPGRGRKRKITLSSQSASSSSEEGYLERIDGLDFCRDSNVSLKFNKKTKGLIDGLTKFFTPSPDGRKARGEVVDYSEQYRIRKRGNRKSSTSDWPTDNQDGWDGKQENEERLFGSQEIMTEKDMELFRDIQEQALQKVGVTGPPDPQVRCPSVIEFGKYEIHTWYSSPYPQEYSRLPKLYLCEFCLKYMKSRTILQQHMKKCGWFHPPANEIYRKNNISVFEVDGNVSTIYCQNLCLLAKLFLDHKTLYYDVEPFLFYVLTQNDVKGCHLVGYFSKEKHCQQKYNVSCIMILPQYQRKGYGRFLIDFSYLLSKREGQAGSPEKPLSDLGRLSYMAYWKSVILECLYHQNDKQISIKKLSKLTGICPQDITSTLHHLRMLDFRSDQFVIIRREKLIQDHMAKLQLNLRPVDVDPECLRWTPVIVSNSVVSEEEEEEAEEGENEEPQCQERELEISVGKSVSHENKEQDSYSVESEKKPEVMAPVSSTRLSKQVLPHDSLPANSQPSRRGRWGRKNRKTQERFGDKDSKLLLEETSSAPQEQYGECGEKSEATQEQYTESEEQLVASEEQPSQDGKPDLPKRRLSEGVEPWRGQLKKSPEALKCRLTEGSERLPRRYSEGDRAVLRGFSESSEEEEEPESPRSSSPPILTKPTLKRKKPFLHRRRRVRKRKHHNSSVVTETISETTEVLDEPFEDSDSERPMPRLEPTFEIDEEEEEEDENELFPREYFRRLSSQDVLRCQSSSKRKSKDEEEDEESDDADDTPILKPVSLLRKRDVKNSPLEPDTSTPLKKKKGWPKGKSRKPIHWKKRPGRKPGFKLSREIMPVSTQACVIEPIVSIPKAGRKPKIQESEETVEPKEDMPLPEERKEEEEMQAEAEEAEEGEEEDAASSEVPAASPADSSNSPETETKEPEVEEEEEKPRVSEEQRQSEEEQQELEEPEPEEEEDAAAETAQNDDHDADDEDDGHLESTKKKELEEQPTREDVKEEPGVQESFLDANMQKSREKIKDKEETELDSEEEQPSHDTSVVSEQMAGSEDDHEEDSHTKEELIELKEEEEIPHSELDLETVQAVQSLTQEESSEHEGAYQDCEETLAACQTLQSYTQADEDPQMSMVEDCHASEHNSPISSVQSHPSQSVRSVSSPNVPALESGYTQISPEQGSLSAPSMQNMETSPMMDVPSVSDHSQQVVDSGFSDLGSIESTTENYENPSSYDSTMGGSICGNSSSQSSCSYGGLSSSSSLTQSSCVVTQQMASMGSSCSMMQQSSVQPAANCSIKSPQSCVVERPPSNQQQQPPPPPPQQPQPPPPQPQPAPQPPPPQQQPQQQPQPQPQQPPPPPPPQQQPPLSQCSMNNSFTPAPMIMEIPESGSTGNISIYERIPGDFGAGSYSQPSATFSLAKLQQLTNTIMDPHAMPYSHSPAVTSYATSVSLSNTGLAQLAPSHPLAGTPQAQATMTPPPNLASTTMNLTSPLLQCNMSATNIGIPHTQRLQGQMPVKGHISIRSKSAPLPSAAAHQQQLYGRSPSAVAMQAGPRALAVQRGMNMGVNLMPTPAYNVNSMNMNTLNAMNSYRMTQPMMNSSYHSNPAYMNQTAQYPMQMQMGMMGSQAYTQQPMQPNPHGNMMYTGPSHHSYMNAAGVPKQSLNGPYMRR
CREBBP, sequence (Q92793 1085-1192 limits assumed): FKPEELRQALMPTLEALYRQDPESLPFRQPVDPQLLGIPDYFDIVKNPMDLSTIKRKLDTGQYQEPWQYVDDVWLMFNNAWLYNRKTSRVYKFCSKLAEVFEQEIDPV
PBRM1(2), sequence (Q86U86 177-287 limits assumed): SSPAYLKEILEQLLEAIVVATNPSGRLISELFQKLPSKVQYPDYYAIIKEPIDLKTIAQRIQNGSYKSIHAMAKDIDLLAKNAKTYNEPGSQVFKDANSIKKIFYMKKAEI
CECR2, sequence (Q9BXF3 434-538 limits assumed): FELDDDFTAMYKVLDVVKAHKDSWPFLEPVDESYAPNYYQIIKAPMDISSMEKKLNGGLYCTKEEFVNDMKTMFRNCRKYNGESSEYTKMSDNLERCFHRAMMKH

## CCCS(=O)(=O)c1nc(NC2CC2)cc(-c2ccc3c(ccn3C3CC(C)(C)NC(C)(C)C3)c2)n1 [NVS-CECR2-1]
MYST3
  activity at 1 µM: 98%
  activity at 10 µM: 103%
HAT1
  activity at 1 µM: 99%
  activity at 10 µM: 88%
BRD4(2)
  Kd: 5.7 µM
BRDT(2)
  Kd: > 30000 nM
GCN5L2
  activity at 1 µM: 100%
  activity at 10 µM: 100%
TRIM24
  Kd: > 30 µM
EP300
  activity at 1 µM: 90%
  activity at 10 µM: 84%
BRD9
  Kd: 2.1 µM
MYST1
  activity at 1 µM: 96%
  activity at 10 µM: 94%
BRPF1
  Kd: 3.5 µM
TAF1(2)
  Kd: 2.1 µM
CECR2
  Kd: 0.014 µM
PBRM1(2)
  Kd: > 30000 nM
ATAD2B
  Kd: > 30000 nM
CREBBP
  Kd: > 30 µM
BRPF3
  Kd: > 30000 nM
BRD4(fl)
  Kd: 13 µM

## O=C(C=CN1[C@H]2CC[C@@H]1c1ncnc(NC3CC3)c1C2)c1ccccc1O [PFI-3 D1]
BRD4(2); BROMOscan, BRD4(2)
  Kd: > 30 µM
BRDT(2); BROMOscan, BRDT(2)
  Kd: > 30000 nM
TRIM24; BROMOscan, TRIM24(Bromo.)
  Kd: > 30 µM
BRD9; BROMOscan, BRD9
  Kd: > 30 µM
BRPF1; BROMOscan, BRPF1
  Kd: > 30 µM
TAF1(2); BROMOscan, TAF1(2)
  Kd: > 30 µM
CECR2; BROMOscan, CECR2
  Kd: > 30 µM
PBRM1(2); BROMOscan, PBRM1(2)
  Kd: 170 nM
ATAD2B; BROMOscan, ATAD2B
  Kd: > 30000 nM
CREBBP; BROMOscan, CREBBP
  Kd: > 30 µM
BRPF3; BROMOscan, BRPF3
  Kd: > 30000 nM
BRD4(fl); BROMOscan, BRD4(full-length,short-iso.)
  Kd: > 30 µM

## COc1ccc(CCc2nc3cc(-c4c(C)noc4C)ccc3n2C[C@H](C)N2CCOCC2)cc1Cl [SGC-CBP30]
MYST3; 1µM
  activity at 1 µM: 103%
MYST3; 10µM
  activity at 10 µM: 103%
HAT1; 1µM
  activity at 1 µM: 96%
HAT1; 10µM
  activity at 10 µM: 97%
BRD4(2)
  Kd: 6.2 µM
BRDT(2); [1]
  Kd: > 30000 nM
BRDT(2); KD, BROMOscan, BRDT(2)
  Kd: > 100000 nM
GCN5L2; 1µM
  activity at 1 µM: 101%
GCN5L2; 10µM
  activity at 10 µM: 101%
TRIM24; KD, BROMOscan, TRIM24(Bromo.)
  Kd: 12 µM
EP300; 1µM
  activity at 1 µM: 98%
EP300; 10µM
  activity at 10 µM: 92%
BRD9; KD, BROMOscan, BRD9
  Kd: 6.1 µM
MYST1; 1µM
  activity at 1 µM: 103%
MYST1; 10µM
  activity at 10 µM: 97%
BRPF1; KD, BROMOscan, BRPF1
  Kd: 2.4 µM
TAF1(2)
  Kd: 3.1 µM
CECR2; KD, BROMOscan, CECR2
  Kd: 7.9 µM
PBRM1(2); [1]
  Kd: > 30000 nM
PBRM1(2); KD, BROMOscan, PBRM1(2)
  Kd: > 100000 nM
ATAD2B; [1]
  Kd: > 30000 nM
ATAD2B; KD, BROMOscan, ATAD2B
  Kd: > 100000 nM
BRPF3; [1]
  Kd: > 30000 nM
BRPF3; KD, BROMOscan, BRPF3
  Kd: > 100000 nM
BRD4(fl)
  Kd: 0.587 µM

## O=C(O)c1ccccc1O [Salicylic Acid]
BRD4(2)
  Kd: > 14000 µM
BRDT(2); KD, BRDT(2)
  Kd: > 1.4e+07 nM
TRIM24; KD, TRIM24(Bromo.)
  Kd: > 14000 µM
BRD9; KD, BRD9
  Kd: > 14000 µM
BRPF1; KD, BRPF1
  Kd: 4200 µM
TAF1(2)
  Kd: > 14000 µM
CECR2; KD, CECR2
  Kd: > 14000 µM
PBRM1(2); KD, PBRM1(2)
  Kd: 1e+06 nM
ATAD2B; KD, ATAD2B
  Kd: > 1.4e+07 nM
CREBBP; KD, CREBBP
  Kd: > 14000 µM
BRPF3; KD, BRPF3
  Kd: > 1.4e+07 nM
BRD4(fl)
  Kd: > 14000 µM
